In the NIST ThermoML archive (doi:10.1021/je0496600):
Numbers after ± are expanded uncertainties.

Experiment: mn = molality of the nth substance listed, in mol/kg
Details: 101.3 kPa, Liquid; for speed of sound: Sing-around technique in a fixed-path interferometer

O=C([O-])CCC(=O)[O-].[Na+].[Na+] [disodium succinate] + O
Details | mass density, 298.15 K [kg/m3] | mass density, 308.15 K [kg/m3] | mass density, 318.15 K [kg/m3] | speed of sound, 298.15 K [m/s] | speed of sound, 308.15 K [m/s] | speed of sound, 318.15 K [m/s]
m1 = 0.0188 | 999.052 ± 0.34 | 996.011 ± 0.37 | 992.179 ± 0.37 | 1500.2 ± 0.98 | 1523.2 ± 0.99 | 1539.9 ± 0.99
m1 = 0.0239 | 999.583 ± 0.34 | 996.544 ± 0.36 | 992.703 ± 0.37 | 1501.1 ± 0.98 | 1524.1 ± 0.99 | 1540.6 ± 0.99
m1 = 0.0336 | 1000.61 ± 0.34 | 997.55 ± 0.35 | 993.703 ± 0.36 | 1502.7 ± 0.98 | 1525.6 ± 0.99 | 1542.1 ± 0.99
m1 = 0.0373 | 1001 ± 0.34 | 997.934 ± 0.35 | 994.083 ± 0.36 | 1503.4 ± 0.98 | 1526.2 ± 0.99 | 1542.7 ± 0.99
m1 = 0.0452 | 1001.82 ± 0.35 | 998.747 ± 0.34 | 994.887 ± 0.36 | 1504.9 ± 0.98 | 1527.5 ± 0.99 | 1544 ± 0.99
m1 = 0.0489 | 1002.2 ± 0.35 | 999.13 ± 0.35 | 995.266 ± 0.36 | 1505.4 ± 0.99 | 1528 ± 0.99 | 1544.6 ± 0.99
m1 = 0.0546 | 1002.79 ± 0.35 | 999.711 ± 0.34 | 995.841 ± 0.36 | 1506.3 ± 0.99 | 1528.9 ± 0.99 | 1545.3 ± 0.99
m1 = 0.0593 | 1003.28 ± 0.35 | 1000.19 ± 0.34 | 996.315 ± 0.35 | 1507.1 ± 0.99 | 1529.7 ± 0.99 | 1546.6 ± 0.99
m1 = 0.068 | 1004.18 ± 0.36 | 1001.08 ± 0.34 | 997.197 ± 0.35 | 1509 ± 0.99 | 1531.7 ± 0.99 | 1547.5 ± 0.99
m1 = 0.0763 | 1005.05 ± 0.36 | 1001.94 ± 0.35 | 998.046 ± 0.35 | 1510.5 ± 0.99 | 1532.4 ± 0.99 | 1548.5 ± 0.99
m1 = 0.0864 | 1006.09 ± 0.36 | 1002.96 ± 0.35 | 999.064 ± 0.34 | 1511.7 ± 0.99 | 1533.9 ± 0.99 | 1549.9 ± 0.99
m1 = 0.0935 | 1006.82 ± 0.37 | 1003.69 ± 0.35 | 999.785 ± 0.34 | 1512.8 ± 0.99 | 1535.1 ± 0.99 | 1551.2 ± 1
m1 = 0.1221 | 1009.74 ± 0.38 | 1006.56 ± 0.36 | 1002.63 ± 0.35 | 1517.5 ± 0.99 | 1539.5 ± 0.99 | 1555.2 ± 1
m1 = 0.2589 | 1023.44 ± 0.43 | 1020.07 ± 0.42 | 1016.03 ± 0.4 | 1539.8 ± 1 | 1560.3 ± 1 | 1575.1 ± 1
m1 = 0.3292 | 1030.32 ± 0.46 | 1026.85 ± 0.45 | 1022.73 ± 0.43 | 1551 ± 1 | 1570.8 ± 1 | 1585.2 ± 1
m1 = 0.4019 | 1037.3 ± 0.49 | 1033.75 ± 0.47 | 1029.56 ± 0.46 | 1562.4 ± 1 | 1581.6 ± 1 | 1595.8 ± 1
m1 = 0.4364 | 1040.57 ± 0.5 | 1036.98 ± 0.49 | 1032.77 ± 0.47 | 1567.8 ± 1 | 1586.6 ± 1 | 1600.7 ± 1
m1 = 0.5252 | 1048.89 ± 0.53 | 1045.2 ± 0.52 | 1040.92 ± 0.5 | 1582 ± 1 | 1599.5 ± 1 | 1612 ± 1
m1 = 0.6535 | 1060.59 ± 0.58 | 1056.74 ± 0.56 | 1052.37 ± 0.55 | 1601.2 ± 1 | 1617.8 ± 1 | 1629.2 ± 1
m1 = 0.7422 | 1068.47 ± 0.61 | 1064.55 ± 0.6 | 1060.13 ± 0.58 | 1615.1 ± 1 | 1630.5 ± 1 | 1641 ± 1.1
m1 = 0.9099 | 1083.03 ± 0.67 | 1078.94 ± 0.66 | 1074.41 ± 0.64 | 1639.8 ± 1.1 | 1653.3 ± 1.1 | 1662.7 ± 1.1
m1 = 1.168 | 1104.44 ± 0.76 | 1100.13 ± 0.74 | 1095.45 ± 0.72 | 1675.7 ± 1.1 | 1687.5 ± 1.1 | 1694.9 ± 1.1
m1 = 1.43 | 1125.04 ± 0.84 | 1120.37 ± 0.82 | 1115.74 ± 0.81 | 1711.2 ± 1.1 | 1720.9 ± 1.1 | 1726.2 ± 1.1
m1 = 1.748 | 1148.68 ± 0.94 | 1143.92 ± 0.92 | 1138.95 ± 0.9 | 1752.4 ± 1.1 | 1759 ± 1.1 | 1762.5 ± 1.1

O=C[O-].[Na+] [sodium methanoate] + O
Details | mass density, 298.15 K [kg/m3] | mass density, 308.15 K [kg/m3] | mass density, 318.15 K [kg/m3] | speed of sound, 298.15 K [m/s] | speed of sound, 308.15 K [m/s] | speed of sound, 318.15 K [m/s]
m1 = 0.0263 | 998.164 ± 0.33 | 995.129 ± 0.35 | 991.308 ± 0.36 | 1498.6 ± 0.98 | 1521.7 ± 0.99 | 1538.3 ± 0.99
m1 = 0.0331 | 998.451 ± 0.33 | 995.412 ± 0.35 | 991.587 ± 0.36 | 1499.1 ± 0.98 | 1522.1 ± 0.99 | 1538.8 ± 0.99
m1 = 0.0437 | 998.896 ± 0.33 | 995.851 ± 0.34 | 992.021 ± 0.36 | 1499.7 ± 0.98 | 1522.7 ± 0.99 | 1539.3 ± 0.99
m1 = 0.0497 | 999.147 ± 0.33 | 996.099 ± 0.34 | 992.265 ± 0.36 | 1500.1 ± 0.98 | 1523.1 ± 0.99 | 1539.6 ± 0.99
m1 = 0.057 | 999.452 ± 0.33 | 996.397 ± 0.34 | 992.559 ± 0.36 | 1500.6 ± 0.98 | 1523.5 ± 0.99 | 1540 ± 0.99
m1 = 0.0682 | 999.921 ± 0.33 | 996.863 ± 0.34 | 993.016 ± 0.35 | 1501.2 ± 0.98 | 1524.2 ± 0.99 | 1540.6 ± 0.99
m1 = 0.0747 | 1000.2 ± 0.33 | 997.131 ± 0.34 | 993.282 ± 0.35 | 1501.6 ± 0.98 | 1524.5 ± 0.99 | 1541 ± 0.99
m1 = 0.0811 | 1000.46 ± 0.33 | 997.398 ± 0.34 | 993.545 ± 0.35 | 1502.1 ± 0.98 | 1524.9 ± 0.99 | 1541.3 ± 0.99
m1 = 0.0909 | 1000.88 ± 0.33 | 997.799 ± 0.34 | 993.945 ± 0.35 | 1502.7 ± 0.98 | 1525.5 ± 0.99 | 1541.9 ± 0.99
m1 = 0.0975 | 1001.15 ± 0.33 | 998.074 ± 0.34 | 994.215 ± 0.35 | 1503 ± 0.98 | 1525.9 ± 0.99 | 1542.4 ± 0.99
m1 = 0.1428 | 1003.03 ± 0.34 | 999.916 ± 0.33 | 996.044 ± 0.34 | 1505.9 ± 0.99 | 1528.5 ± 0.99 | 1544.5 ± 0.99
m1 = 0.2955 | 1009.33 ± 0.36 | 1006.11 ± 0.35 | 1002.18 ± 0.34 | 1515.1 ± 0.99 | 1536.9 ± 0.99 | 1552.5 ± 1
m1 = 0.4697 | 1016.34 ± 0.39 | 1012.98 ± 0.38 | 1008.95 ± 0.36 | 1525.2 ± 0.99 | 1546.2 ± 1 | 1561.2 ± 1
m1 = 0.6887 | 1024.99 ± 0.43 | 1021.49 ± 0.41 | 1017.38 ± 0.4 | 1537.7 ± 1 | 1557.7 ± 1 | 1572.6 ± 1
m1 = 0.8366 | 1030.69 ± 0.45 | 1027.11 ± 0.44 | 1022.93 ± 0.42 | 1546 ± 1 | 1565.3 ± 1 | 1579 ± 1
m1 = 0.9653 | 1035.61 ± 0.47 | 1031.93 ± 0.46 | 1027.66 ± 0.44 | 1553.1 ± 1 | 1571.8 ± 1 | 1584.9 ± 1
m1 = 1.139 | 1042.15 ± 0.5 | 1038.38 ± 0.48 | 1034.04 ± 0.47 | 1562.4 ± 1 | 1580.4 ± 1 | 1593.2 ± 1
m1 = 1.233 | 1045.63 ± 0.51 | 1041.81 ± 0.5 | 1037.43 ± 0.48 | 1567.5 ± 1 | 1585 ± 1 | 1597.3 ± 1
m1 = 1.496 | 1055.23 ± 0.55 | 1051.27 ± 0.54 | 1046.79 ± 0.52 | 1581.2 ± 1 | 1597.5 ± 1 | 1609.2 ± 1
m1 = 2.188 | 1079.46 ± 0.65 | 1075.15 ± 0.64 | 1070.43 ± 0.62 | 1615.3 ± 1 | 1628.8 ± 1 | 1638.3 ± 1.1
m1 = 2.783 | 1099.17 ± 0.73 | 1094.61 ± 0.72 | 1089.57 ± 0.7 | 1642.8 ± 1.1 | 1653.9 ± 1.1 | 1661.4 ± 1.1
m1 = 3.458 | 1120.32 ± 0.82 | 1115.48 ± 0.8 | 1110.11 ± 0.78 | 1671.7 ± 1.1 | 1680.4 ± 1.1 | 1685.7 ± 1.1
m1 = 4.201 | 1142.29 ± 0.91 | 1137.22 ± 0.89 | 1131.78 ± 0.87 | 1701.1 ± 1.1 | 1707.2 ± 1.1 | 1709.9 ± 1.1
m1 = 4.966 | 1163.55 ± 1 | 1158.26 ± 0.98 | 1152.83 ± 0.96 | 1729.1 ± 1.1 | 1732.7 ± 1.1 | 1733.4 ± 1.1
m1 = 6.561 | 1204.09 ± 1.2 | 1198.4 ± 1.1 | 1192.37 ± 1.1 | 1779.4 ± 1.2 | 1778.7 ± 1.2 | 1775.7 ± 1.2
m1 = 7.737 | 1230.99 ± 1.3 | 1225.05 ± 1.3 | 1218.87 ± 1.2 | 1811.1 ± 1.2 | 1807.6 ± 1.2 | 1802 ± 1.2
m1 = 8.551 | 1248.27 ± 1.4 | 1242.15 ± 1.3 | 1235.77 ± 1.3 | 1830.5 ± 1.2 | 1825.3 ± 1.2 | 1818.3 ± 1.2
m1 = 10.05 | 1277.62 ± 1.5 | 1271.22 ± 1.4 | 1264.6 ± 1.4 | 1862.1 ± 1.2 | 1854.1 ± 1.2 | 1844.6 ± 1.2
